Measured values: patent publication US20090088380A1, “GHRH ANALOGS AND THERAPEUTIC USES THEREOF” (priority 2007, published 2009)
Non-standard residues stand in square brackets, D forms with d. Residues, ends and D or L forms follow the SMILES beside them.

Assays:
[1] = In vitro proteolysis assay in rat serum; format: in vitro ADME
Description: Proteolysis was stopped by adding 800 μl of ice-cold stop buffer (potassium-phosphate buffer, acidified to pH 0.8 with trifluoroacetic acid (TFA) and boiling 5 min (rat serum only). After centrifugation (12000 g, 5 min, 4° C.) (rat serum only), serum-peptide mixtures were passed through a conditioned Sep-Pak C-18 cartridge to extract native GHRH or a GHRH analog residual concentrations from serum proteins. The native GHRH or the analog was eluted in 2 ml of 50% acetonitrile-0.01% TFA/50% 0.01% aqueous TFA. 200 μl of extracted peptide, representing 1 μg of GHRH or analog at time 0, was quantified by analytical HPLC, using one μ-Bondapak C18 column (10 μm particle size, 0.39×15 cm) (rat serum) or two C18 columns in series (human serum and plasma) and a binary solvent system composed of NaClO4 0.01 M, pH 2.5 and acetonitrile. A linear gradient from 30 to 60% acetonitrile over 45 min (rat serum) or 30 to 50% (human serum and plasma) was used. Elution of intact peptide was monitored at 214 nm and residual concentration determined by assessment of peak surface areas.

Rat Growth Hormone = assay: In vivo GH secretion in adult female Sprague-Dawley rats, single SC or IV injection, RIA; details: for GH AUC 45 min / GH AUC 300 min / GH AUC 120 min: in ng·min/mL (unit assumed)
Description: In order to assess such use of the GHRH analogs, the following experiments were undertaken. More specially, the goal was to assess the pharmacodynamic and pharmacokinetic profiles and acute toxicity of GHRH analog #5 when administered once by subcutaneous or intravenous injection to female Sprague-Dawley rats followed by a 14-day observation period and the pharmacodynamic profile in a male Beagle dog when the GHRH analog was administered at escalating doses to the same dog by subcutaneous injection with at least 2-day washout period. The above GHRH analog is a variation of a synthetic acetate salt of an amidated synthetic 29-amino acid peptide that corresponds to the amino-terminal segment of the naturally-occurring human growth hormone—releasing hormone (GHRH) with four amino acid substitutions in positions 2, 10, 15, and 22.
Human GHRH analog #5 in 0.9% sodium chloride for injection USP was administered once either by intravenous (IV) or subcutaneous (SC) injection to female rats followed by a 14-day observation period, as shown in Table 2. Prior to administration, all dosing formulations were filtered using a 0.22 μm filter to ensure sterility. The actual amount of GHRH analog #5 administered was calculated and adjusted based on the animal's most recent body weight. Dosing started at approximately the same time each day, commencing at 9:00 am ±30 minutes.
For pharmacodynamic investigations, blood samples (approximately 1.3 ml) were collected from 2 animals per group per time point (maximum 3 time points/animal) via a jugular venipuncture at the following time points: […] All blood samples were collected into potassium EDTA tubes and centrifuged under refrigeration (2 to 8° C., 1500 g for 10 minutes).
Rat Growth Hormone Determination • Plasma GH was determined by Linco Diagnostic Services using their own kit. Linco's Rat Growth Hormone radioimmunoassay kit (RIA) (RGH-45HK) is intended for the quantitative determination of Rat Growth Hormone in serum, plasma, and tissue culture media. It is a completely homologous assay since the antibody was raised against recombinant Rat Growth Hormone and both the tracer and the standard are prepared with the same recombinant Rat Growth Hormone. The kit includes standards, antibody, tracer, quality controls, precipitating reagents and buffer necessary to complete a RIA. The assay was conducted under the following conditions: overnight; equilibrium incubation at room temperature; sample volume: 100 μl serum, plasma, or cell culture media. The label used was 125I-Rat Growth Hormone (20,000 CPM/tube).

## CC[C@H](C)[C@H](NC(=O)[C@H](C)NC(=O)[C@H](CC(=O)O)NC(=O)[C@@H](C)NC(=O)[C@@H](N)Cc1ccc(O)cc1)C(=O)N[C@@H](Cc1ccccc1)C(=O)N[C@H](C(=O)N[C@@H](CC(N)=O)C(=O)N[C@@H](CO)C(=O)N[C@H](Cc1ccc(O)cc1)C(=O)N[C@@H](CCCNC(=N)N)C(=O)N[C@@H](CCCCN)C(=O)N[C@H](C(=O)N[C@@H](CC(C)C)C(=O)N[C@H](C)C(=O)N[C@@H](CCC(N)=O)C(=O)N[C@@H](CC(C)C)C(=O)N[C@@H](CO)C(=O)N[C@@H](C)C(=O)N[C@@H](CCCNC(=N)N)C(=O)N[C@@H](CCCCN)C(=O)N[C@@H](CCCCN)C(=O)N[C@@H](CC(C)C)C(=O)N[C@@H](CCC(N)=O)C(=O)N[C@@H](CC(=O)O)C(=O)N[C@H](C(=O)N[C@@H](CCSC)C(=O)N[C@@H](CO)C(=O)N[C@@H](CCCNC(=N)N)C(N)=O)[C@@H](C)CC)C(C)C)[C@@H](C)O [GHRH analog #5, [D-Ala^2, D-Tyr^10, D-Ala^15, Lys^22] hGHRH(1-29)-NH2] (H-Y[dA]DAIFTNS[dY]RKVL[dA]QLSARKKLQDIMSR-NH2)
[1]; compared to hGHRH(1-29)-NH2
  Relative resistance to proteolysis in vitro: 3.13
[1]; incubation 0 min
  Residual concentration (% of initial concentration): 100 ± 0 % of initial concentration
Rat Growth Hormone; 0.001 mg/kg BW IV, 4 min
  Plasma Rat Growth Hormone: 26.2 ng/mL
Rat Growth Hormone; 0.001 mg/kg BW IV, 10 min
  Plasma Rat Growth Hormone: 25.85 ng/mL
Rat Growth Hormone; 0.001 mg/kg BW IV, 15 min
  Plasma Rat Growth Hormone: 34.65 ng/mL
Rat Growth Hormone; 0.001 mg/kg BW IV, 45 min
  Plasma Rat Growth Hormone: 21.15 ng/mL
Rat Growth Hormone; 0.001 mg/kg BW IV, 300 min
  Plasma Rat Growth Hormone: 67.15 ng/mL
Rat Growth Hormone; 0.001 mg/kg BW IV
  GH AUC 45 min: 1197
  GH AUC 300 min: 12280
Rat Growth Hormone; 0.001 mg/kg BW IV, −120 min
  Plasma Rat Growth Hormone: 23.85 ng/mL
Rat Growth Hormone; 0.001 mg/kg BW SC, 15 min
  Plasma Rat Growth Hormone: 36.7 ng/mL
Rat Growth Hormone; 0.001 mg/kg BW SC, 30 min
  Plasma Rat Growth Hormone: 14.2 ng/mL
Rat Growth Hormone; 0.001 mg/kg BW SC, 60 min
  Plasma Rat Growth Hormone: 26.85 ng/mL
Rat Growth Hormone; 0.001 mg/kg BW SC, 120 min
  Plasma Rat Growth Hormone: 17.8 ng/mL
Rat Growth Hormone; 0.001 mg/kg BW SC, 300 min
  Plasma Rat Growth Hormone: 21.85 ng/mL
Rat Growth Hormone; 0.001 mg/kg BW SC
  GH AUC 120 min: 2914
  GH AUC 300 min: 6482
Rat Growth Hormone; 0.001 mg/kg BW SC, −120 min
  Plasma Rat Growth Hormone: 20.15 ng/mL
Rat Growth Hormone; 0.01 mg/kg BW SC, 15 min
  Plasma Rat Growth Hormone: 190.4 ng/mL
Rat Growth Hormone; 0.01 mg/kg BW SC, 30 min
  Plasma Rat Growth Hormone: 31.9 ng/mL
Rat Growth Hormone; 0.01 mg/kg BW SC, 60 min
  Plasma Rat Growth Hormone: 8.5 ng/mL
Rat Growth Hormone; 0.01 mg/kg BW SC, 120 min
  Plasma Rat Growth Hormone: 7.6 ng/mL
Rat Growth Hormone; 0.01 mg/kg BW SC, 300 min
  Plasma Rat Growth Hormone: 11.95 ng/mL
Rat Growth Hormone; 0.01 mg/kg BW SC
  GH AUC 120 min: 5153
  GH AUC 300 min: 6913
Rat Growth Hormone; 0.01 mg/kg BW SC, −120 min
  Plasma Rat Growth Hormone: 20.4 ng/mL
Rat Growth Hormone; 0.03 mg/kg BW IV, 4 min
  Plasma Rat Growth Hormone: 68.45 ng/mL
Rat Growth Hormone; 0.03 mg/kg BW IV, 10 min
  Plasma Rat Growth Hormone: 254.65 ng/mL
Rat Growth Hormone; 0.03 mg/kg BW IV, 15 min
  Plasma Rat Growth Hormone: 75.1 ng/mL
Rat Growth Hormone; 0.03 mg/kg BW IV, 45 min
  Plasma Rat Growth Hormone: 33.4 ng/mL
Rat Growth Hormone; 0.03 mg/kg BW IV, 300 min
  Plasma Rat Growth Hormone: 38.75 ng/mL
Rat Growth Hormone; 0.03 mg/kg BW IV
  GH AUC 45 min: 3407
  GH AUC 300 min: 12060
Rat Growth Hormone; 0.03 mg/kg BW IV, −120 min
  Plasma Rat Growth Hormone: 43.15 ng/mL
Rat Growth Hormone; 0.03 mg/kg BW SC, 15 min
  Plasma Rat Growth Hormone: 240.9 ng/mL
Rat Growth Hormone; 0.03 mg/kg BW SC, 30 min
  Plasma Rat Growth Hormone: 39.05 ng/mL
Rat Growth Hormone; 0.03 mg/kg BW SC, 60 min
  Plasma Rat Growth Hormone: 9.5 ng/mL
Rat Growth Hormone; 0.03 mg/kg BW SC, 120 min
  Plasma Rat Growth Hormone: 4.6 ng/mL
Rat Growth Hormone; 0.03 mg/kg BW SC, 300 min
  Plasma Rat Growth Hormone: 11.25 ng/mL
Rat Growth Hormone; 0.03 mg/kg BW SC
  GH AUC 120 min: 6192
  GH AUC 300 min: 7618
Rat Growth Hormone; 0.03 mg/kg BW SC, −120 min
  Plasma Rat Growth Hormone: 36.1 ng/mL
Rat Growth Hormone; 0.1 mg/kg BW SC, 15 min
  Plasma Rat Growth Hormone: 252.4 ng/mL
Rat Growth Hormone; 0.1 mg/kg BW SC, 30 min
  Plasma Rat Growth Hormone: 43.8 ng/mL
Rat Growth Hormone; 0.1 mg/kg BW SC, 60 min
  Plasma Rat Growth Hormone: 7.65 ng/mL
Rat Growth Hormone; 0.1 mg/kg BW SC, 120 min
  Plasma Rat Growth Hormone: 4.45 ng/mL
Rat Growth Hormone; 0.1 mg/kg BW SC, 300 min
  Plasma Rat Growth Hormone: 18.7 ng/mL
Rat Growth Hormone; 0.1 mg/kg BW SC
  GH AUC 120 min: 6423
  GH AUC 300 min: 8507
Rat Growth Hormone; 0.1 mg/kg BW SC, −120 min
  Plasma Rat Growth Hormone: 20.4 ng/mL
Rat Growth Hormone; 0.3 mg/kg BW SC, 15 min
  Plasma Rat Growth Hormone: 247.9 ng/mL
Rat Growth Hormone; 0.3 mg/kg BW SC, 30 min
  Plasma Rat Growth Hormone: 133.5 ng/mL
Rat Growth Hormone; 0.3 mg/kg BW SC, 60 min
  Plasma Rat Growth Hormone: 16.75 ng/mL
Rat Growth Hormone; 0.3 mg/kg BW SC, 120 min
  Plasma Rat Growth Hormone: 4.00 ng/mL
Rat Growth Hormone; 0.3 mg/kg BW SC, 300 min
  Plasma Rat Growth Hormone: 21.8 ng/mL
Rat Growth Hormone; 0.3 mg/kg BW SC
  GH AUC 120 min: 8636
  GH AUC 300 min: 10958
